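Protocol summary: plate cells (96-well), add compound at 5 concentrations, incubate 48 h, interpolate endpoints linearly. Here, GI50 denotes the concentration required for 50% inhibition of growth.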 The source made the active and inactive calls. No stated cut-off is given here; in the data, active = GI50 up to about 1.1 µM and inactive = higher.
Key:
Assay in all cases: NCI anticancer screen, dose series, 48 h
[1] = system: A498
[2] = system: BT-549
[3] = system: CCRF-CEM
[4] = system: DLD-1
[5] = system: HCT-116
[6] = system: IGROV-1
[7] = system: MCF7
[8] = system: MDA-MB-435
[9] = system: NCI-H23
[10] = system: NCI/ADR-RES
[11] = system: RXF 393
[12] = system: SF-268
[13] = system: SK-MEL-28
[14] = system: SN12C
[15] = system: SNB-78
[16] = system: SR
[17] = system: SW-620
[18] = system: TK-10
[19] = system: UACC-62
[20] = system: UO-31

| Structure (SMILES) | GI50 [1] | GI50 [2] | GI50 [3] | GI50 [4] | GI50 [5] | GI50 [6] | GI50 [7] | GI50 [8] | GI50 [9] | GI50 [10] | GI50 [11] | GI50 [12] | GI50 [13] | GI50 [14] | GI50 [15] | GI50 [16] | GI50 [17] | GI50 [18] | GI50 [19] | GI50 [20] |
| --- | --- | --- | --- | --- | --- | --- | --- | --- | --- | --- | --- | --- | --- | --- | --- | --- | --- | --- | --- | --- |
| O=Nc1ccc(O)c2ncccc12 | 18.5 µM (inactive) | 10.5 µM (inactive) | 0.611 µM (active) | 9.57 µM (inactive) | 0.822 µM (active) | 5.46 µM (inactive) | 1.76 µM (inactive) | 1.26 µM (inactive) | 0.762 µM (active) | 3.85 µM (inactive) | 1.67 µM (inactive) | 3.68 µM (inactive) | 4.34 µM (inactive) | 8.18 µM (inactive) | 2.43 µM (inactive) | 0.328 µM (active) | 4.79 µM (inactive) | 14.8 µM (inactive) | 0.875 µM (active) | 2.98 µM (inactive) |
| COc1ccc(/C=C2/CSC/C(=C/c3ccc(OC)c(OC)c3)C2=O)cc1OC | 4.93 µM (inactive) | 2.88 µM (inactive) | 0.849 µM (active) | 0.46 µM (active) | 0.971 µM (active) | 2.28 µM (inactive) | 2.22 µM (inactive) | 2.97 µM (inactive) | 2.3 µM (inactive) | 1.66 µM (inactive) | 3.34 µM (inactive) | 1.99 µM (inactive) | 2.94 µM (inactive) | 1.77 µM (inactive) | 2.12 µM (inactive) | 0.828 µM (active) | 1.19 µM (inactive) | 3.9 µM (inactive) | 1.69 µM (inactive) | 4.65 µM (inactive) |
| O=C1C=C(O)c2nc(O)ccc2C1=O | > 100 µM (inactive) |  | > 100 µM (inactive) | > 100 µM (inactive) | > 100 µM (inactive) | > 100 µM (inactive) |  |  | > 100 µM (inactive) |  | > 100 µM (inactive) | > 100 µM (inactive) | > 100 µM (inactive) | > 100 µM (inactive) | > 100 µM (inactive) | > 100 µM (inactive) | > 100 µM (inactive) | > 100 µM (inactive) | > 100 µM (inactive) | > 100 µM (inactive) |
| CCc1cccc(C(C)C)c1C1C(=O)C(=O)N(c2nc3ccccc3s2)C(=O)C1=O | > 100 µM (inactive) |  | > 100 µM (inactive) | > 100 µM (inactive) | > 100 µM (inactive) | > 100 µM (inactive) |  |  | > 100 µM (inactive) |  | > 100 µM (inactive) | > 100 µM (inactive) | > 100 µM (inactive) | > 100 µM (inactive) | > 100 µM (inactive) | > 100 µM (inactive) | > 100 µM (inactive) | > 100 µM (inactive) | > 100 µM (inactive) | > 100 µM (inactive) |
| Cc1ccc(NC(=O)C(=O)C(C#N)c2ccccc2C)cc1C (stereo unspecified) | > 100 µM (inactive) |  | > 61.7 µM (inactive) | 52.4 µM (inactive) | > 44.5 µM (inactive) | > 100 µM (inactive) |  |  | > 100 µM (inactive) |  | > 100 µM (inactive) | > 100 µM (inactive) | > 100 µM (inactive) | > 100 µM (inactive) | > 100 µM (inactive) | > 100 µM (inactive) | > 41.8 µM (inactive) | > 100 µM (inactive) | > 100 µM (inactive) | > 100 µM (inactive) |
| O=C1C[C@H](c2ccc(O)c(O)c2)Oc2cc(O)cc(O)c21 | > 100 µM (inactive) |  | 31.2 µM (inactive) | > 100 µM (inactive) | > 100 µM (inactive) | > 100 µM (inactive) |  |  | > 100 µM (inactive) |  | > 100 µM (inactive) | 63.5 µM (inactive) | 90.6 µM (inactive) | > 100 µM (inactive) | > 100 µM (inactive) | 27 µM (inactive) | > 100 µM (inactive) | 73.1 µM (inactive) | 61.7 µM (inactive) | 29.8 µM (inactive) |
| COc1ccc(C(c2c(O)c3ccccc3n(-c3ccccc3)c2=O)c2c(O)c3ccccc3n(-c3ccccc3)c2=O)cc1 |  |  | > 100 µM (inactive) | > 100 µM (inactive) | > 100 µM (inactive) |  |  |  | > 100 µM (inactive) |  | > 100 µM (inactive) | > 100 µM (inactive) | > 100 µM (inactive) | > 100 µM (inactive) | > 100 µM (inactive) | 72.4 µM (inactive) | > 100 µM (inactive) | > 100 µM (inactive) |  | > 100 µM (inactive) |
| CC(=O)C1=C(C)NC2C=CC=CN12 (stereo unspecified) | > 100 µM (inactive) |  | > 100 µM (inactive) | > 100 µM (inactive) | > 100 µM (inactive) | > 100 µM (inactive) |  |  | > 100 µM (inactive) |  | > 100 µM (inactive) | > 100 µM (inactive) | > 100 µM (inactive) | > 100 µM (inactive) | > 100 µM (inactive) | > 100 µM (inactive) | > 100 µM (inactive) | > 100 µM (inactive) | > 100 µM (inactive) | > 100 µM (inactive) |
| O=C1c2ccccc2C(=O)N1C/C=N/NS(=O)(=O)c1ccc2ccccc2c1 | > 100 µM (inactive) |  | > 100 µM (inactive) | > 100 µM (inactive) | > 100 µM (inactive) | > 100 µM (inactive) |  |  | > 100 µM (inactive) |  |  |  |  | > 100 µM (inactive) | > 100 µM (inactive) | > 100 µM (inactive) | > 100 µM (inactive) | > 100 µM (inactive) | > 100 µM (inactive) | > 100 µM (inactive) |
| O=C(O)c1c[nH]c2c(=O)[nH]cnc12 |  |  | > 100 µM (inactive) | > 100 µM (inactive) | > 100 µM (inactive) | > 100 µM (inactive) |  |  | > 100 µM (inactive) |  | > 100 µM (inactive) | > 100 µM (inactive) | > 100 µM (inactive) | > 100 µM (inactive) | > 100 µM (inactive) | > 100 µM (inactive) | > 100 µM (inactive) | > 100 µM (inactive) | > 100 µM (inactive) | > 100 µM (inactive) |
| CC(=O)Oc1ccc(O)c2c1CCCC2 | > 31.6 µM (inactive) |  | 10.2 µM (inactive) | 20.7 µM (inactive) | 18.4 µM (inactive) | > 100 µM (inactive) |  |  | > 52.8 µM (inactive) |  | > 42.8 µM (inactive) | 58.3 µM (inactive) | 66.4 µM (inactive) | > 45.4 µM (inactive) | 19.8 µM (inactive) | 2.82 µM (inactive) | 20.8 µM (inactive) | 21.4 µM (inactive) | > 75.5 µM (inactive) | > 45.5 µM (inactive) |
| COc1cc2c(cc1OC)C(C(CBr)CBr)N(C1CCCC1)CC2 (stereo unspecified) | > 100 µM (inactive) |  | > 100 µM (inactive) | > 100 µM (inactive) |  | > 100 µM (inactive) |  |  | > 100 µM (inactive) |  | > 100 µM (inactive) | > 100 µM (inactive) | > 100 µM (inactive) |  | > 10 µM (inactive) | > 100 µM (inactive) | > 100 µM (inactive) | > 100 µM (inactive) | > 100 µM (inactive) | > 100 µM (inactive) |
| COC(=O)N/N=C/c1oc(-c2ccccc2)c(-c2ccccc2)c1[N+](=O)[O-] |  |  |  | > 100 µM (inactive) | > 100 µM (inactive) | > 100 µM (inactive) |  |  | > 100 µM (inactive) |  | > 100 µM (inactive) | > 100 µM (inactive) | > 100 µM (inactive) | > 100 µM (inactive) | > 100 µM (inactive) | > 100 µM (inactive) | > 100 µM (inactive) | > 100 µM (inactive) | > 100 µM (inactive) | > 100 µM (inactive) |
| C[N+](C)(C)CC1CCCCC1O (stereo unspecified) | > 100 µM (inactive) |  | > 100 µM (inactive) | > 100 µM (inactive) | > 100 µM (inactive) | > 100 µM (inactive) |  |  | > 100 µM (inactive) |  | > 100 µM (inactive) | > 100 µM (inactive) | > 100 µM (inactive) | > 100 µM (inactive) | > 100 µM (inactive) | > 100 µM (inactive) | > 100 µM (inactive) | > 100 µM (inactive) | > 100 µM (inactive) | > 100 µM (inactive) |
| CCCC(C)NC1=C(NC(C)=O)C(=O)c2ccccc2C1=O (stereo unspecified) |  |  | > 100 µM (inactive) | > 100 µM (inactive) | > 100 µM (inactive) | > 100 µM (inactive) |  |  | > 100 µM (inactive) |  | > 100 µM (inactive) | > 100 µM (inactive) | > 100 µM (inactive) | > 100 µM (inactive) | > 100 µM (inactive) | > 100 µM (inactive) | > 100 µM (inactive) | > 100 µM (inactive) | > 100 µM (inactive) | > 100 µM (inactive) |
| C=C1C(=O)C=C2C=C3C(=O)C(C)(C)C[C@]3(O)C12C (stereo partly specified) | 12.8 µM (inactive) | 1.54 µM (inactive) | 0.131 µM (active) | 1.65 µM (inactive) | 3.97 µM (inactive) | 18 µM (inactive) |  | 12.4 µM (inactive) | 4.81 µM (inactive) | 28.8 µM (inactive) | 1.48 µM (inactive) | 5.65 µM (inactive) | 2.52 µM (inactive) | 9.4 µM (inactive) | 7.74 µM (inactive) | 0.452 µM (active) | 0.968 µM (active) | 1.84 µM (inactive) | 8.39 µM (inactive) | 7.11 µM (inactive) |
| COC1=CC(C2c3cc4c(cc3[C@@H](Nc3ccc([N+](=O)[O-])cc3)C3COC(=O)[C@H]23)OCO4)=CC(=O)C1=O (stereo partly specified) | 1.84 µM (inactive) |  | 1.06 µM (active) | 14 µM (inactive) | 6.64 µM (inactive) | 13 µM (inactive) |  |  | 1.64 µM (inactive) |  | 17.9 µM (inactive) | 2.53 µM (inactive) | 14.8 µM (inactive) | 2 µM (inactive) | 28 µM (inactive) | 0.179 µM (active) | 5.31 µM (inactive) | 8.41 µM (inactive) | 2.18 µM (inactive) | 6.24 µM (inactive) |
